Data taken from US20080182822A1, “Liquid Pharmaceutical Compositions Comprising a Bisphosphonate Compound” (Besins Healthcare SA, priority 2006, published 2008).
Where “and” joins values, the source holds several entries; their conditions need not be identical. Identical values can stand only once. Like-named read-outs stand apart in the source and are kept apart here.

Details: rat; for Feces Excretion, Amount Excreted (% of Dose), 8 hours: collection 0-8 hours; for Feces Excretion, Amount Excreted (% of Dose), 120 hours / Urinary Excretion, Amount Excreted (% of Dose), 120 hours: collection 96-120 hours; for Feces Excretion, Amount Excreted (% of Dose), 144 hours / Urinary Excretion, Amount Excreted (% of Dose), 144 hours: collection 120-144 hours; for Feces Excretion, Amount Excreted (% of Dose), 168 hours / Urinary Excretion, Amount Excreted (% of Dose), 168 hours: collection 144-168 hours
[1] = intravenous 0.2 mg/kg (Group 1), Mean
[2] = intravenous 0.2 mg/kg (Group 1), individual animals, 0.2 mg/kg
[3] = intravenous 0.2 mg/kg (Group 1), collection 24-48 hours, individual animals, 0.2 mg/kg
[4] = intravenous 0.2 mg/kg (Group 1), collection 48-72 hours, Mean
[5] = intravenous 0.2 mg/kg (Group 1), collection 48-72 hours, individual animals, 0.2 mg/kg
[6] = intravenous 0.2 mg/kg (Group 1), collection 72-96 hours, Mean
[7] = intravenous 0.2 mg/kg (Group 1), collection 72-96 hours, individual animals, 0.2 mg/kg
[8] = intravenous 0.2 mg/kg (Group 1), necropsy Day 4, Mean
[9] = intravenous 0.2 mg/kg (Group 1), necropsy Day 4, individual animals, 0.2 mg/kg
[10] = intravenous 0.2 mg/kg (Group 1), necropsy Day 8, Mean
[11] = intravenous 0.2 mg/kg (Group 1), necropsy Day 8, individual animals, 0.2 mg/kg

SMILES: NCCCC(O)(P(=O)(O)O)P(=O)(O)O [14C-alendronate]
- Recovery from Treated Skin, % of Dose (dermal (Group 2), necropsy Day 8, individual animals): 0.25% and 0.22% (2×) and 0.33% and 0.39%
- Urinary Excretion, Total Excretion (% of Dose), 0-72 hours (in vivo): 1.16% of Dose
- Feces Excretion, Amount Excreted (% of Dose), 72 hours (in vivo, iv, 0.2 mg/kg): 1.17% of Dose
- Feces Excretion, Amount Excreted (% of Dose), 96 hours (in vivo, iv, 0.2 mg/kg): 1.17% of Dose
- Urinary Excretion, Amount Excreted (% of Dose), 24 hours (in vivo, iv, 0.2 mg/kg): 1.19% of Dose and 1.28% of Dose and 1.37% of Dose and 1.27% of Dose and 1.06% of Dose
- Urinary Excretion, Total Excretion (% of Dose), 0-72 hours (in vivo, iv, 0.2 mg/kg): 11.3% of Dose
- Feces Excretion, Total Excretion (% of Dose), 0-72 hours [1]: 4.1% of Dose
- Urinary Excretion, Total Excretion (% of Dose), 0-72 hours [1]: 7.3% of Dose
- Feces Excretion, Amount Excreted (% of Dose), 8 hours [1]: 0.12% of Dose
- Feces Excretion, Amount Excreted (% of Dose), 8 hours [2]: 0.01% of Dose and 0.02% of Dose and 0.00% of Dose (3×) and 0.67% of Dose
- Urinary Excretion, Amount Excreted (% of Dose), 24 hours (intravenous 0.2 mg/kg (Group 1), collection 8-24 hours, Mean): 1.2% of Dose
- Urinary Excretion, Amount Excreted (% of Dose), 24 hours (intravenous 0.2 mg/kg (Group 1), collection 8-24 hours, individual animals): 0.94% of Dose
- Urinary Excretion, Amount Excreted (% of Dose), 48 hours (intravenous 0.2 mg/kg (Group 1), collection 24-48 hours, Mean): 0.8% of Dose
- Feces Excretion, Amount Excreted (% of Dose), 48 hours [3]: 0.47% of Dose and 0.92% of Dose
- Urinary Excretion, Amount Excreted (% of Dose), 48 hours [3]: 0.78% of Dose and 0.94% of Dose and 0.75% of Dose and 0.95% of Dose and 0.34% of Dose and 0.85% of Dose
- Feces Excretion, Amount Excreted (% of Dose), 72 hours [4]: 0.57% of Dose
- Urinary Excretion, Amount Excreted (% of Dose), 72 hours [4]: 0.4% of Dose
- Feces Excretion, Amount Excreted (% of Dose), 72 hours [5]: 0.15% of Dose and 0.24% of Dose and 0.44% of Dose and 0.87% of Dose
- Urinary Excretion, Amount Excreted (% of Dose), 72 hours [5]: 0.56% of Dose and 0.34% of Dose and 0.51% of Dose and 0.61% of Dose and 0.20% of Dose and 0.26% of Dose
- Feces Excretion, Amount Excreted (% of Dose), 96 hours [6]: 0.55% of Dose
- Urinary Excretion, Amount Excreted (% of Dose), 96 hours [6]: 0.5% of Dose
- Feces Excretion, Amount Excreted (% of Dose), 96 hours [7]: 0.32% of Dose and 0.14% of Dose
- Urinary Excretion, Amount Excreted (% of Dose), 96 hours [7]: 0.74% of Dose and 0.15% of Dose and 0.57% of Dose
- Feces Excretion, Amount Excreted (% of Dose), 120 hours [1]: 0.41% of Dose
- Urinary Excretion, Amount Excreted (% of Dose), 120 hours [1]: 0.3% of Dose
- Feces Excretion, Amount Excreted (% of Dose), 120 hours [2]: 0.56% of Dose and 0.12% of Dose and 0.54% of Dose
- Urinary Excretion, Amount Excreted (% of Dose), 120 hours [2]: 0.43% of Dose and 0.11% of Dose and 0.27% of Dose
- Feces Excretion, Amount Excreted (% of Dose), 144 hours [1]: 0.34% of Dose
- Urinary Excretion, Amount Excreted (% of Dose), 144 hours [1]: 0.3% of Dose
- Feces Excretion, Amount Excreted (% of Dose), 144 hours [2]: 0.36% of Dose and 0.08% of Dose and 0.59% of Dose
- Urinary Excretion, Amount Excreted (% of Dose), 144 hours [2]: 0.59% of Dose and 0.06% of Dose and 0.31% of Dose
- Feces Excretion, Amount Excreted (% of Dose), 168 hours [1]: 0.04% of Dose
- Urinary Excretion, Amount Excreted (% of Dose), 168 hours [1]: 0.2% of Dose
- Feces Excretion, Amount Excreted (% of Dose), 168 hours [2]: 0.06% of Dose and 0.02% of Dose and 0.05% of Dose
- Urinary Excretion, Amount Excreted (% of Dose), 168 hours [2]: 0.33% of Dose and 0.18% of Dose and 0.16% of Dose
- Feces Excretion, Total Excretion (% of Dose), 0-72 hours [2]: 3.1% of Dose and 8.6% of Dose and 2.4% of Dose and 3.2% of Dose and 2.3% of Dose and 5.0% of Dose
- Feces Excretion, Total Excretion (% of Dose), 0-168 hours [2]: 5.6% of Dose and 3.1% of Dose and 8.2% of Dose
- Urinary Excretion, Total Excretion (% of Dose), 0-72 hours [2]: 8.0% of Dose and 7.6% of Dose and 7.8% of Dose and 3.9% of Dose and 5.2% of Dose
- Concentration in bone, Femur [8]: 0.500 μg 14C-alendronate/g bone
- Concentration in bone, Tibia [8]: 0.492 μg 14C-alendronate/g bone
- Concentration in bone, Femur [9]: 0.525 μg 14C-alendronate/g bone and 0.408 μg 14C-alendronate/g bone and 0.568 μg 14C-alendronate/g bone
- Concentration in bone, Tibia [9]: 0.551 μg 14C-alendronate/g bone and 0.547 μg 14C-alendronate/g bone and 0.379 μg 14C-alendronate/g bone
- Concentration in bone, Femur [10]: 0.679 μg 14C-alendronate/g bone
- Concentration in bone, Tibia [10]: 0.586 μg 14C-alendronate/g bone
- Concentration in bone, Femur [11]: 0.707 μg 14C-alendronate/g bone and 0.692 μg 14C-alendronate/g bone and 0.639 μg 14C-alendronate/g bone
- Concentration in bone, Tibia [11]: 0.704 μg 14C-alendronate/g bone and 0.680 μg 14C-alendronate/g bone and 0.374 μg 14C-alendronate/g bone
